This is an account of results in patent US20040068002A1, “4-aminobenzopyran derivatives” (priority 2001, published 2004).

Assay [1] concerns atrial effective refractory period. The experiment in a line: Effects on the effective refractory period (atrial), anesthetized beagles with vagal nerve stimulation. The assay is classed as in vivo. As to conditions: 0.3 mg/kg intravenously, from 5 min after administration, after minus before administration. On the procedure: (§1) Effects on the Effective Refractory Period
(§2) Beagles were anesthetized with pentobarbital sodium and, under artificially ventilated condition, thoracotomy was conducted along the median and the pericardium was cut open to expose the heart. ECG was recorded using bipolar electrodes attached to the surface of the right atrial free wall, right atrial auricle, and right ventricular free wall. The vagal nerves were stimulated using an electric stimulation device via Nichrome wires inserted into the bilateral vagal nerves in the neck. The conditions for electric stimulation to the vagal nerves were set such that the RR intervals on ECG were prolonged by about 100 msec compared with those before the stimulation was started.
(§3) Electric current twice as strong as the threshold was used for the electric stimulation to the heart, and premature stimulation S2 was applied after giving 10 serial S1 stimulations at the basic stimulation cyclelength. […]
(§4) For evaluation of drug effects, the atrial and ventricular effective refractory periods were determined before drug administration, then each compound was administrated intravenously at the dose of 0.3 mg/kg, and the atrial and ventricular effective refractory periods were determined from 5 min after the administration. […]

Assay [2] deals with ventricular effective refractory period. The experiment in a line: Effects on the effective refractory period (ventricular), anesthetized beagles with vagal nerve stimulation. In kind it is in vivo. To be noted: 0.3 mg/kg intravenously, from 5 min after administration, after minus before administration. On the procedure:
as §1, §2, §3, §4

Consider `CCCCCN[C@H]1c2cc(N)c([N+](=O)[O-])cc2OC(C)(C)[C@@H]1O` (relative stereo) [Synthesis Example 9, Trans-6-amino-3,4-dihydro-2,2-dimethyl-7-nitro-4-n-pentylamino-2H-1-benzopyran-3-ol], for which the “prolongation time in effective refractory period (msec) Atrium” value in assay [1] was determined as 27 ms. In addition, in assay [2], the “prolongation time in effective refractory period (msec) ventricle” value turned out to be 3 ms.
The matching figures for `CCCCCN[C@H]1c2cc(NC(C)=O)c([N+](=O)[O-])cc2OC(C)(C)[C@@H]1O` (relative stereo) [Synthesis Example 1, (3R*,4S*)-6-acetylamino-3,4-dihydro-2,2-dimethyl-7-nitro-4-n-pentylamino-2H-1-benzopyran-3-ol]: 40 ms and 5 ms.
